The results in this text go back to patent publication US9085555B2, “Complement pathway modulators and uses thereof” (priority 2011, dated 2015).

For the assay, the target named is Factor D (Homo sapiens (Human), UniProt P00746). The assay can be described thus: biochemical. It is filed as biochemical. The following applies: read-out: IC50.

SMILES strings stand for the structures. Where a name gives a salt, the structure may show the parent alone.

Sequence of Factor D (P00746 26-253): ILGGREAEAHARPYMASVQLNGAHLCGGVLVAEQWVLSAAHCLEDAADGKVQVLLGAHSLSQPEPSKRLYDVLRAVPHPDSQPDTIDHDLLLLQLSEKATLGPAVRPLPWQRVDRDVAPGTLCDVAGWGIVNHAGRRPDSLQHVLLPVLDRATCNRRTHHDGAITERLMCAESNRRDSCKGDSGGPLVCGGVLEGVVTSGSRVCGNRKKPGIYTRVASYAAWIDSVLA

In general, IC50 refers to the concentration that gives 50% inhibition. For `NC(=O)c1nn(CC(=O)N2CCCC[C@H]2C(=O)NCc2cccc(Cl)c2F)c2cnccc12` [Example 656, 1-{2-[(S)-2-(3-Chloro-2-fluoro-benzylcarbamoyl)-piperidin-1-yl]-2-oxo-ethyl}-1H-pyrazolo[3,4-c]pyridine-3-carboxylic acid amide], the IC50 was 358 nM.
As for `NC(=O)c1nn(CC(=O)N2CCS[C@H]2C(=O)NCc2cccc(Cl)c2F)c2cnccc12` [Example 657, 1-{2-[(S)-2-(3-Chloro-2-fluoro-benzylcarbamoyl)-thiazolidin-3-yl]-2-oxo-ethyl}-1H-pyrazolo[3,4-c]pyridine-3-carboxylic acid amide], the figure is 78 nM; as for `CO[C@H]1[C@@H](C(=O)NCc2cccc(Cl)c2F)N(C(=O)Cn2cc(C(C)=O)c3cc(C)ncc32)C[C@@H]1F` [Example 658, (2S,3S,4S)-1-[2-(3-Acetyl-5-methyl-pyrrolo[2,3-c]pyridin-1-yl)-acetyl]-4-fluoro-3-methoxy-pyrrolidine-2-carboxylic acid 3-chloro-2-fluoro-benzylamide formate], 24 nM; as for `CO[C@H]1[C@@H](C(=O)NC2(c3cccc(Cl)c3F)CC2)N(C(=O)Cn2nc(C(N)=O)c3cccnc32)C[C@@H]1F` [Example 659, 1-(2-{(2S,3S,4S)-2-[1-(3-Chloro-2-fluoro-phenyl)-cyclopropylcarbamoyl]-4-fluoro-3-methoxy-pyrrolidin-1-yl}-2-oxo-ethyl)-1H-pyrazolo[3,4-b]pyridine-3-carboxylic acid amide], 25 nM.
For the compound `CO[C@H]1[C@@H](C(=O)NC2(c3cccc(Cl)c3F)CC2)N(C(=O)Cn2nc(C(N)=O)c3cnccc32)C[C@@H]1F` [Example 660, 1-(2-{(2S,3S,4S)-2-[1-(3-Chloro-2-fluoro-phenyl)-cyclopropylcarbamoyl]-4-fluoro-3-methoxy-pyrrolidin-1-yl}-2-oxo-ethyl)-1H-pyrazolo[4,3-c]pyridine-3-carboxylic acid amide], the IC50 stood at 16 nM.
Next, `CO[C@H]1[C@@H](C(=O)NCc2cccc(Cl)c2F)N(C(=O)Cn2nc(C(N)=O)c3cc(C)ncc32)C[C@@H]1F` [Example 661, 1-{2-[(2S,3S,4S)-2-(3-Chloro-2-fluoro-benzylcarbamoyl)-4-fluoro-3-methoxy-pyrrolidin-1-yl]-2-oxo-ethyl}-5-methyl-1H-pyrazolo[3,4-c]pyridine-3-carboxylic acid amide]: 10 nM.
Next, `CO[C@H]1[C@@H](C(=O)NCc2cccc(Cl)c2F)N(C(=O)Cn2nc(C(N)=O)c3ccncc32)C[C@@H]1F` [Example 662, 1-{2-[(2S,3S,4S)-2-(3-Chloro-2-fluoro-benzylcarbamoyl)-4-fluoro-3-methoxy-pyrrolidin-1-yl]-2-oxo-ethyl}-1H-pyrazolo[3,4-c]pyridine-3-carboxylic acid amide]: 13 nM; `CO[C@H]1[C@@H](C(=O)NCc2cccc(Cl)c2F)N(C(=O)Cn2nc(C(N)=O)c3cnccc32)C[C@@H]1F` [Example 663, 1-{2-[(2S,3S,4S)-2-(3-Chloro-2-fluoro-benzylcarbamoyl)-4-fluoro-3-methoxy-pyrrolidin-1-yl]-2-oxo-ethyl}-1H-pyrazolo[4,3-c]pyridine-3-carboxylic acid amide]: 36 nM.
On to `CO[C@H]1[C@@H](C(=O)N[C@H](C)c2cccc(Cl)c2F)N(C(=O)Cn2nc(C(N)=O)c3ccncc32)C[C@@H]1F` [Example 664, 1-(2-{(2S,3S,4S)-2-[(R)-1-(3-Chloro-2-fluoro-phenyl)-ethylcarbamoyl]-4-fluoro-3-methoxy-pyrrolidin-1-yl}-2-oxo-ethyl)-1H-pyrazolo[3,4-c]pyridine-3-carboxylic acid amide], for which the IC50 worked out at 24 nM.
As for `CO[C@H]1[C@@H](C(=O)N[C@H](C)c2cccc(Cl)c2F)N(C(=O)Cn2nc(C(N)=O)c3cnccc32)C[C@@H]1F` [Example 665, 1-(2-{(2S,3S,4S)-2-[(R)-1-(3-Chloro-2-fluoro-phenyl)-ethylcarbamoyl]-4-fluoro-3-methoxy-pyrrolidin-1-yl}-2-oxo-ethyl)-1H-pyrazolo[4,3-c]pyridine-3-carboxylic acid amide], the figure is 58 nM.
